By Km is commonly meant the concentration of substrate that gives half-maximal velocity.

The test concerns D-pantolactone hydrolase purified from Fusarium oxysporum (IFO 5942). Briefly: Substrate specificity (Km) and inhibition of purified D-pantolactone hydrolase. It is filed as biochemical. As to conditions: for Km: purified enzyme, the compound is the substrate, read-out: Km (Michaelis constant).

Experimental: Fusarium oxysporum (IFO 5942) was inoculated into each of thirty 2l shake flasks each containing 500 ml of culture medium containing 5% sucrose, 0.4% sodium nitrate, 0.2% dipotassium monohydrogenphosphate, 0.05% magnesium sulfate, 0.05% potassium chloride, 0.001% ferric sulfate and 0.002% zinc sulfate (pH 6.0), and subjected to shaking culture at 28° C. for 7 days. The combined culture broths were centrifuged to give 800 g of wet mass of cells. The cells were triturated by means of a DYNO®-MILL with 2.5 l of 0.1 mM dithiothreitol-containing 20 mM Tris-HCl buffer (pH 7.4), and the mixture was centrifuged to give 2.3 l of cell-free extract. […] Furthermore, 572 g of potassium chloride were added to, and dissolved in, this cell-free extract and the mixture was loaded on an Octyl sepharose CL4B column (3×28 cm) and eluted with 3M potassium chloride. 2.4 l of eluted active fractions were dialyzed against 0.1 mM dithiothreitol-containing 20 mM Tris-HCl buffer (pH 7.4). The resultant 2.9 l of enzyme solution were loaded on a DEAE Sephacel column (5.5×34 cm) and eluted with a linear gradient of 0 to 0.5M potassium chloride. 255 ml of eluted active fractions were loaded on a hydroxyapatite column (5×10 cm) and eluted with a linear gradient of 0 to 0.88M potassium phosphate buffer (pH 7.0). 425 ml of eluted active fractions were subjected to ultrafiltration using an Amicon YM 10, and 115 ml of the resultant enzyme concentrate were dialyzed against 0.1 mM dithiothreitol-containing 20 mM Tris-HCl buffer (pH 7.4). 190 ml of the enzyme solution were subjected to ultrafiltration using an Amicon YM 30 and 14.5 ml of the resultant enzyme solution was loaded on a sephacryl S-300 column (2.5×95 cm) and eluted with 0.2M potassium chloride. 44.5 ml of eluted active fractions were dialyzed against 0.1 mM dithiothreitol-containing 20 mM Tris-HCl buffer (pH 7.4), then loaded on a Q sepharose Fast Flow column (1.8×3 cm) and eluted with a linear gradient of 0 to 1M potassium chloride. 7 ml of eluted active fractions were dialyzed against 0.1 mM dithiothreitol-containing 20 mM Tris-HCl buffer (pH 7.4) to obtain 6.8 ml of purified enzyme solution.
In determining enzyme activity, the enzyme activity which hydrolyzes 1 μmol of D-pantolactone in one minute under the conditions specified below was taken as one unit (U).
50 μl of enzyme solution were added to 200 μl of 10% D-pantolactone solution in 0.5M PIPES buffer (pH 7.0). After reaction at 30° C. for 120 minutes, 250 μl of 2 mM EDTA solution in methanol were added to stop the reaction. The resultant reaction mixture was subjected to HPLC (Nucleosil 5C18 4.6×150 mm; eluent 10% methanol; rate of flow 1 ml/min; detection wavelength 230 nm) to determine the % hydrolysis. For example, where the % hydrolysis is 1%, the enzyme activity/ml of enzyme solution corresponds to 1.6×10^-2 U/ml.
Values in parentheses are those for the activity of the respective metal ions at 2.5 mM concentration as measured with the activity value in the case of no addition of metal ions taken as 100.

With `O=C(O)CN(CCN(CC(=O)O)CC(=O)O)CC(=O)O` [EDTA, reference compound], where the note is “5 mM EDTA”, the “Inhibition of enzyme activity” value is given as “inhibited completely”.
Regarding `CC1(C)COC(=O)[C@@H]1O` [D-pantolactone], the Km was determined as 82 mM.
Still for that read-out and setting: in the case of `O=C1O[C@@H]([C@H](O)CO)[C@@H](O)[C@H]1O` [D-gulonolactone] it was 29 mM; in that of `O=C1O[C@@H]([C@H](O)CO)[C@H](O)[C@H]1O` [D-galactonolactone], 3.6 mM; in that of `O=C1O[C@@H]([C@@H](O)CO)[C@@H](O)[C@H]1O` [L-mannonolactone], 23 mM.

The values above are taken from patent US5372940A, “D-pantolactone hydrolase and process for the preparation thereof” (Fuji Yakuhin Kogyo Kabushiki Kaisha, priority 1990, dated 1994).
